Where a chain is given by its changes, count along the chain named. Values joined by “and” are separate entries in the source; they are usually repeats but may differ in a detail not shown here. Equal values may be shown once.
Columns and labels:
Format in all cases: biochemical, Aloe barbadensis
[1] = target: T1, AbCGT V183D (Aloe vera, UniProt A0A7G9P699, V183D); experiment: Glycosyltransferase activity of AbCGT variant V183D
T1 sequence (A0A7G9P699 1-470 V183D): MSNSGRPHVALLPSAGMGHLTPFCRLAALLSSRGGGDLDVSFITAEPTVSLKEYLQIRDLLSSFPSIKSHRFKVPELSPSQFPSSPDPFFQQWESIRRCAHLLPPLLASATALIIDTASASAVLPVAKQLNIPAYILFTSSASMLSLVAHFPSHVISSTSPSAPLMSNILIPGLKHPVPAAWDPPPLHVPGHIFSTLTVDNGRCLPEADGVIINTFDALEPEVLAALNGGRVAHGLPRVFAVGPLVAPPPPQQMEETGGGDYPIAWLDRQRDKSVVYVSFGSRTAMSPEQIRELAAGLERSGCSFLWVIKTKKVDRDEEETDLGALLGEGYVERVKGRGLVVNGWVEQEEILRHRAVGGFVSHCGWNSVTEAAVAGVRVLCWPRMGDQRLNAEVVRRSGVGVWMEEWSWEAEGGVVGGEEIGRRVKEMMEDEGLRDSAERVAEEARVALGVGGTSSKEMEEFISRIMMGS
Protocol: (§1) The reaction mixture contained 0.5 mM sugar donors (1.0 mM for di-glycosylation), 0.25 mM aglycons, 50 mM Tris-HCl (pH 7.4), and 50‒100 μg of purified AbCGT in a final volume of 100 μL. Due to the instability of some acceptors in the buffer of pH 11.0, the reactions were performed under the physiological conditions (pH 7.4, 30 °C) to compare the catalytic activities of AbGT27 with different substrates under the same conditions. The reactions were performed at 30 °C for up to 12 h and terminated by the addition of 200 μL of ice-cold methanol. Subsequently, samples were centrifuged at 15,000 × g for 30 min to collect the supernatant, and aliquots were analyzed by HPLC-UV/ESIMS. HPLC analysis was performed on a Shiseido CAPCELL PAK C18 MG III column (250 mm × 4.6 mm I.D., 5 μm, Shiseido Co., Ltd., Japan) at a flow rate of 1 mL min^‒1. The mobile phase was a gradient elution of solvents A (0.1% formic acid aqueous solution) and B (methanol). The gradient programs were used for the analysis of the reactions (Supplementary Table 6). The conversion rates of the enzyme reactions were calculated from peak areas of glycosylated products and substrates as analyzed by HPLC. To facilitate inferential statistical analysis, three parallel assays were routinely performed; the means ± SD from triplicate analyses are reported here.
(§2) Site-saturation mutagenesis of AbCGT at residue 183 was performed by PCR using pET28a-AbCGT as a template and the corresponding degenerate primers, which are listed in Supplementary Table 5. PCR products were purified and transformed into Trans1-T1 (DE3) E. coli. The sequences of pET28a-AbCGT mutants were confirmed by sequencing, and transformed into Transetta (DE3) E. coli for heterologous expression following protein purification.

[2] = target: T2, AbCGT V183E (Aloe vera, UniProt A0A7G9P699, V183E); experiment: Glycosyltransferase activity of AbCGT variant V183E
T2 sequence (A0A7G9P699 1-470 V183E): T1 sequence (A0A7G9P699 1-470 V183D) with D183E
Protocol: as §1, §2

[3] = target: AbCGT (Aloe vera, UniProt A0A7G9P699); experiment: Glycosyltransferase activity assay, purified AbCGT (wild type) with aglycon acceptors and UDP-Glc; details: for conversion rates, O,N,S-glycosylation / conversion rates, di-C-glycosylation / conversion rates, mono-C-glycosylation: aglycon acceptor with UDP-Glc, pH 7.4, 30 °C, up to 12 h, Reaction-1 to -3
Protocol: as §1, with “Due” for “The reaction mixture contained 0.5 mM sugar donors (1.0 mM for di-glycosylation), 0.25 mM aglycons, 50 mM Tris-HCl (pH 7.4), and 50‒100 μg of purified AbCGT in a final volume of 100 μL. Due”, “HPLC analysis was performed on a Shiseido CAPCELL PAK C18 MG III column (250 mm × 4.6 mm I.D., 5 μm, Shiseido Co., Ltd., Japan) at a flow rate of 1 mL min^‒1. The mobile phase was a gradient elution of solvents A (0.1% formic acid aqueous solution) and B (methanol).” left out

Sequence of AbCGT (A0A7G9P699 entry or part of it): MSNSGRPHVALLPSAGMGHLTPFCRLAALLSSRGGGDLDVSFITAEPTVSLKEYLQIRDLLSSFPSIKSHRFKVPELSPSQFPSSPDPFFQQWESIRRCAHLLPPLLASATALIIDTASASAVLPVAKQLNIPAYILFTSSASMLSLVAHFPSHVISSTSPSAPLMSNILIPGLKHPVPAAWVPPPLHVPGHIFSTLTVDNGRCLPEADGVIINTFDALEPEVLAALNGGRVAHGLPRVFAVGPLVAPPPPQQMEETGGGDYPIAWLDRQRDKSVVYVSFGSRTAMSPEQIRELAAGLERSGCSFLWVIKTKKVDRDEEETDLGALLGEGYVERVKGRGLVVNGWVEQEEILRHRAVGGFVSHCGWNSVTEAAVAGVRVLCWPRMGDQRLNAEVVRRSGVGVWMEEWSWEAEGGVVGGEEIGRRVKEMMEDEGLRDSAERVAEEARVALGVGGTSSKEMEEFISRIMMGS

| SMILES | V183D/yield of C-glycoside(%) ([1]; reaction-1) | V183D/yield of O-glycoside(%) ([1]; reaction-1) | V183D/yield of C-glycoside(%) ([1]; reaction-2) | V183D/yield of O-glycoside(%) ([1]; reaction-2) | V183D/yield of C-glycoside(%) ([1]; reaction-3) | V183D/yield of O-glycoside(%) ([1]; reaction-3) | V183E/yield of O-glycoside(%) ([2]; reaction-1) | V183E/yield of C-glycoside(%) ([2]; reaction-2) | V183E/yield of O-glycoside(%) ([2]; reaction-2) | V183E/yield of C-glycoside(%) ([2]; reaction-3) | V183E/yield of O-glycoside(%) ([2]; reaction-3) | conversion rates, O,N,S-glycosylation [3] | conversion rates, di-C-glycosylation [3] [%] | conversion rates, mono-C-glycosylation [3] | WT/yield of C-glycoside(%) ([3]; reaction-1) | WT/yield of O-glycoside(%) ([3]; reaction-1) | WT/yield of C-glycoside(%) ([3]; reaction-2) | WT/yield of O-glycoside(%) ([3]; reaction-2) | WT/yield of C-glycoside(%) ([3]; reaction-3) | WT/yield of O-glycoside(%) ([3]; reaction-3) | also measured |
| --- | --- | --- | --- | --- | --- | --- | --- | --- | --- | --- | --- | --- | --- | --- | --- | --- | --- | --- | --- | --- | --- |
| CC(=O)c1cccc(O)c1 [Compound 2] | 0 | 0 | 0 | 0 | 0 | 0 | 0 | 0 | 0 | 0 | 0 | 71% and 72.2% and 73.1% | 0 | 0% | 0 | 70.1 | 0 | 73.8 | 0 | 73 | V183E/yield of C-glycoside(%) ([2]; reaction-1): 0% |
| CC(=O)c1ccc(O)cc1 [Compound 3] | 0 | 0 | 0 | 0 | 0 | 0 | 0 | 0 | 0 | 0 | 0 | 70.3% and 72% and 73% | 0 | 0% | 0 | 70.4 | 0 | 71.9 | 0 | 71 | V183E/yield of C-glycoside(%) ([2]; reaction-1): 0% |
| CC(=O)c1cc(O)cc(O)c1 [Compound 4, 3,5-dihydroxyacetophenone] | 0 | 0 | 0 | 0 | 0 | 0 | 0 | 0 | 0 | 0 | 0 | 32.6% and 34.9% and 33.8% | 0 | 0% | 1 | 38.8 | 0.8 | 32.4 | 1.3 | 32.9 | V183E/yield of C-glycoside(%) ([2]; reaction-1): 0% |
| CC(=O)c1c(O)cccc1O [Compound 5] | 8.2 | 0 | 7.5 | 0 | 7.9 | 0 | 0 | 0 | 0 | 0 | 0 | 72% and 70.6% and 73% | 0 | 16.5% and 14.3% and 13.1% | 15.1 | 73.6 | 14.2 | 71 | 14.7 | 72.9 | V183E/yield of C-glycoside(%) ([2]; reaction-1): 0% |
| CC(=O)c1ccc(O)cc1O [Compound 6, 2,4-dihydroxyacetophenone] | 13.9 | 1 | 12.3 | 1.5 | 13.1 | 1.4 | 0 | 5.5 | 0 | 6.8 | 0 | 43.8% and 46.5% and 44.5% | 0 | 27.1% and 26.5% and 27.4% | 29.2 | 43.5 | 25.9 | 45.7 | 26 | 47 | – |
| CC(=O)c1c(O)cc(C)cc1O [Compound 7] | 8 | 0.8 | 7.2 | 1 | 7.2 | 1.3 | 0 | 8.9 | 0 | 13.1 | 0 | 77% and 78.6% and 82.4% | 0 | 13.9% and 12% and 15.9% | 15.2 | 77.6 | 14.1 | 78 | 13.5 | 81.4 | V183E/yield of C-glycoside(%) ([2]; reaction-1): 11.1% |
| COc1cc(O)c(C(C)=O)c(O)c1 [Compound 13] | 6.8 | 0 | 7.3 | 0 | 7 | 0 | 0.8 | 4.1 | 2 | 6 | 1.1 | 20.7% and 23.5% and 25.6% | 0 | 66.9% and 65.9% and 68.6% | 70.5 | 21.2 | 65 | 22.7 | 68.1 | 25.9 | V183E/yield of C-glycoside(%) ([2]; reaction-1): 5.7% |

— article PMC7558026, “Exploring and applying the substrate promiscuity of a C-glycosyltransferase in the chemo-enzymatic synthesis of bioactive C-glycosides” (Nature Communications, 2020)
